Test results taken from US10172822B2, “Pharmaceutical use of 3-benzylsulfonylpropionitrile” (Olatec Therapeutics LLC, priority 2013, dated 2019).

Assays:
[1] = test system: tail flick reaction to heat; experiment: tail flick test in mice (49° C. water bath); type: in vivo
Description: The tail flick test is a test of the pain response in animals. The tail flick test is used in basic pain research and to measure the effectiveness of analgesics, by observing the tail flick reaction to heat in an animal. This test assesses the nociceptive response to a local pain stimulus, and the ability of a drug to inhibit this response.
Vehicle control (DMSO) and test compound 3-benzylsulfonylpropionitrilein in DMSO were administered by oral gavage to mice with a volume of 5 mL/kg, immediately prior to testing, at time zero. The test compound was administered at a dosage of 500 mg/kg in DMSO. Positive control morphine in water was administered at time zero by subcutaneous injection at 8 mg/kg to mice. […] The purpose of morphine is […] to serve as a comparison with the test compound. Each group had 10 mice.
The response of mice to heat stimulus was evaluated by measuring the time of tail-flick or tail-flick latency from 49° C. water bath. Briefly, the animal was held with its tail hanging down. Approximately 2 inches of the tail was immersed in a beaker of water at 38±1° C. for about 30 seconds, and this was done twice to acclimate the animal to the procedure.
Subsequently, approximately 2 inches of the tail was immersed in a beaker of water at 49±1° C., at which point a timer was started.
Tail flick measurements were made at 0, 30, 60, and 120 minutes post administration of the dosage of test compound, vehicle, or morphine. An ANOVA was done, and if p<0.05, a Dunnett's t test was employed to calculate significant difference between vehicle control and test compound treated groups. A pairwise Student's t test was used to calculate differences between the morphine group and the control group. […] Analysis with p-values <0.05 is considered significant.

[2] = test system: arachidonic acid-induced ear swelling; experiment: topical arachidonic acid-induced ear swelling model in mice; type: in vivo
Description: The test compound, indomethacin (positive control), and vehicle were evaluated for anti-inflammatory activity in a topical arachidonic acid-induced ear swelling model in mice. Male ICR mice weighing 22±2 g were used and randomly divided; the test compound and vehicle control had 10 mice, and indomethacin had 5 mice. Arachidonic Acid (0.5 mg in 20 μl of acetone:ethanol/1:1) was applied topically to the anterior and posterior surfaces of the right ear of each mice. Test substances and vehicle, as listed in Table 1 were similarly applied 30 min before and 15 min after arachidonic acid application. The thickness of the right ear and the left ear was measured and the difference calculated as an indication of the inflammation in the right ear. Ear swelling was measured by a Dyer model micrometer gauge at 60 and 90 minutes after arachidonic acid application as an index of inflammation. Percent inhibition was calculated according to the formula: Ic−It/Ic×100, where Ic and It refers to increase of ear thickness (mm) in control and treated mice, respectively. ANOVA and Dunnett's test were employed to ascertain significant difference between vehicle control and treated groups. Significance is set at P<0.05 level.

Question: Which results are given for `CN1CC[C@]23c4c5ccc(O)c4O[C@H]2[C@@H](O)C=C[C@H]3[C@H]1C5` [morphine]?
Answer: tail flick latency compared with vehicle-treated mice ([1]; subcutaneous injection 8 mg/kg, 30 and 60 minutes post dosing): statistically significant tail flick latency; tail flick latency compared with vehicle-treated mice ([1]; subcutaneous injection 8 mg/kg, 120 minutes post dosing): not

Question: `COc1ccc2c(c1)c(CC(=O)O)c(C)n2C(=O)c1ccc(Cl)cc1` [Indomethacin, indomethacin, reference compound] was tested. Which “% Inhibition of ear swelling” value ([2]; topical application 30 min before and 15 min after arachidonic acid, measured at 90 minutes after arachidonic acid, relative to vehicle) did it give?
Answer: 58%

Question: How did the “anti-inflammatory activity in the mouse ear swelling model” value ([2]; applied topically, inflammation induced by arachidonic acid) turn out when `N#CCCS(=O)(=O)Cc1ccccc1` [3-Benzylsulfonylpropionitrile, 3-benzylsulfonylpropionitrile] was run?
Answer: anti-inflammatory

Question: And the “tail flick latency compared with vehicle-treated mice” value ([1]; oral administration 500 mg/kg in DMSO, 30, 60, and 120 minutes post dosing)?
Answer: statistically significant tail flick latency
